Measurements published in ChEMBL document CHEMBL1201862, “PubChem BioAssay data set” (2004).
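A five-concentration, 48-hour dose response in 96-well plates underlies each endpoint, interpolated linearly between surrounding concentrations. GI50 = concentration required for 50% inhibition of growth.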 Active and inactive are the calls of the source. Rule as the data show it: active = GI50 up to about 1.1 µM and inactive = higher.

Experiments:
Assay in all cases: DTP human tumour cell line panel, 48 h
[1] = tested on: CCRF-CEM
[2] = tested on: A549
[3] = tested on: CAKI-1
[4] = tested on: MDA-MB-435
[5] = tested on: OVCAR-8
[6] = tested on: EKVX
[7] = tested on: Malme-3M
[8] = tested on: NCI-H226
[9] = tested on: HCT-116
[10] = tested on: NCI/ADR-RES
[11] = tested on: TK-10
[12] = tested on: HOP-92
[13] = tested on: UO-31
[14] = tested on: UACC-257
[15] = tested on: OVCAR-3
[16] = tested on: KM12
[17] = tested on: SNB-75
[18] = tested on: NCI-H460
[19] = tested on: HT-29
[20] = tested on: M14

Measured: GI50

O=C(Nc1cc2cc([N+](=O)[O-])ccc2oc1=O)c1cccs1
inactive: [1] 11.3 µM | [2] 43.8 µM | [3] 48.6 µM | [4] 25.2 µM | [5] 34.2 µM | [6] 61.7 µM | [7] > 100 µM | [8] 44 µM | [9] 25.4 µM | [10] 62.2 µM | [11] > 100 µM | [12] 37.6 µM | [13] 60.4 µM | [14] 75.2 µM | [15] 97.5 µM | [16] 24.5 µM | [17] 2.78 µM | [18] 51.2 µM | [19] 39.5 µM | [20] 58.7 µM

O=C(O)c1cnccc1-c1cc(=O)[nH]n1-c1ccccc1
inactive: [1] 34.4 µM | [2] 48.9 µM | [3] 15.4 µM | [4] 46 µM | [5] 52.8 µM | [6] > 53.1 µM | [7] > 100 µM | [8] > 100 µM | [9] 51.8 µM | [10] 27.6 µM | [11] > 100 µM | [12] > 53.2 µM | [13] 27.9 µM | [14] 66.1 µM | [15] > 43.9 µM | [16] 9.75 µM | [17] > 68.5 µM | [18] 35 µM | [19] 21.4 µM | [20] 10.8 µM

CCS(=O)(=O)c1c2cc(OC)ccc2nc2ccc(OC)cc12
inactive: [1] > 100 µM | [2] > 100 µM | [3] > 100 µM | [4] > 100 µM | [5] > 100 µM | [6] > 100 µM | [7] > 100 µM | [8] > 100 µM | [9] > 100 µM | [10] > 100 µM | [11] > 100 µM | [12] > 100 µM | [13] > 100 µM | [14] > 100 µM | [15] > 100 µM | [16] > 100 µM | [17] > 100 µM | [18] > 100 µM | [19] > 100 µM | [20] > 100 µM
